Like-named read-outs stand apart in the source and are kept apart here.
Columns and labels:
[1] = system: nuclear symmetric Arginine dimethylation in A549 cells; assay: PD assay (assay 2): inhibition of nuclear symmetric Arginine dimethylation (SYM10 immunohistochemistry), 48 h; assay type: cell-based; details: Homo sapiens
Protocol: Experimental Procedure PD Assay (Assay 2)
A549 cells (ATCC, Cat #CCL-185) were cultured in Dulbecco's Modified Eagle's Medium (DMEM) (Sigma, Cat #D5796), supplemented with 10% Fetal Calf Serum (FCS) (HyClone™, Cat #SV30160.03), 100 mM Sodium Pyruvate (Sigma, Cat #S8636), 200 mM L-Glutamine (Sigma, Cat #G7513) and 50 mg/mL gentamycin (Gibco, Cat #15750-037).
Reagents used for buffers were purchased: Dulbecco's phosphate buffered saline (DPBS) without Ca/Mg (Sigma, Cat #D8537), phosphate buffered saline (PBS) 10× (Roche, Cat #11 666 789 001), Formalin solution 10% (Sigma, HT50-1-128-4L), Methanol 100% (Sigma, Cat #32213-2.5L), Triton X-100 (Acros, Cat #215680010), Bovine Serum Albumin (BSA) (Sigma, Cat #A2153), Alexa fluor 488 goat anti-rabbit antibody (Life Technologies, Cat #A11034), HCS CellMask Deep Red Stain (Life Technologies, Cat #H32721), Hoechst Stain (Life Technologies, Cat #33258), Anti-dimethyl-Arginine, sym (SYM10) antibody (Millipore, 07-412).
Immunohistochemistry Procedure
Cells were plated at 400 cells/40 μL/well in 384 well black μplates clear bottom (Perkin Elmer) and overnight incubated at 37° C., 5% CO2. […] 80 nL of the respective dilution of the compounds was added using the Labcyte POD 810 (Labcyte) reaching a final DMSO concentration of 0.2% in cell culture. After an incubation period of 48 h at 37° C. and 5% CO2, cells were fixed in 10% formalin solution for 15 min at room temperature and 20 min in ice-cold methanol, after which they were washed 3× in DPBS. Subsequently, the cells were blocked for 1 h in blocking buffer (PBS+1% BSA and 0.5% Triton X-100) and incubated overnight at 4° C. with the SYM10 antibody diluted 1/2000 in blocking buffer. The cells were washed 3× with washing buffer (PBS+0.1% Triton X-100) and incubated with the Alexa fluor 488 goat anti-rabbit antibody diluted 1/200 in blocking buffer for 1 h at room temperature. Subsequently, they were washed 3× with washing buffer and incubated for 30 min at room temperature with PBS containing a 1/5000 dilution of Hoechst Stain and a 1/5000 dilution of the HCS CellMask Deep Red Stain. After a final wash with PBS, the plates were imaged using the 10×W lens of the Opera® system (Perkin Elmer Life Sciences) using following settings (values in nm):
In the above equations, the following variable names are used: […]
In the above equations, the following controls were used for normalization: […]
Low control: minimum level of symmetrically dimethylated Arginines (cells treated with reference compound at 10 μM).
High control: maximum level of symmetrically dimethylated Arginines (DMSO treated cells).
IC50 and pIC50 (−log IC50) values were calculated using the appropriate software.
The pIC50 values in the Table below are averaged values (Co. No. means compound number; n.d. means not determined).

[2] = target: T1, PRMT5-MEP50 enzyme (Homo sapiens, UniProt O14744); assay: In vitro assay 1b: high throughput mass spectrometer assay of SAH formation, 1.25 nM enzyme, 120 min; assay type: biochemical; details: averaged values; PRMT5-MEP50, 1.25 nM enzyme, 120 min; read-out: pIC50 Assay 1b (converted)
T1 construct: One virus expresses full length human PRMT5 with Flag-tag at N-terminus; Flag (N); purchased Charles River (Argenta); host or cells: insect cells (Sf9), baculovirus co-infection
T1 sequence (O14744 whole entry): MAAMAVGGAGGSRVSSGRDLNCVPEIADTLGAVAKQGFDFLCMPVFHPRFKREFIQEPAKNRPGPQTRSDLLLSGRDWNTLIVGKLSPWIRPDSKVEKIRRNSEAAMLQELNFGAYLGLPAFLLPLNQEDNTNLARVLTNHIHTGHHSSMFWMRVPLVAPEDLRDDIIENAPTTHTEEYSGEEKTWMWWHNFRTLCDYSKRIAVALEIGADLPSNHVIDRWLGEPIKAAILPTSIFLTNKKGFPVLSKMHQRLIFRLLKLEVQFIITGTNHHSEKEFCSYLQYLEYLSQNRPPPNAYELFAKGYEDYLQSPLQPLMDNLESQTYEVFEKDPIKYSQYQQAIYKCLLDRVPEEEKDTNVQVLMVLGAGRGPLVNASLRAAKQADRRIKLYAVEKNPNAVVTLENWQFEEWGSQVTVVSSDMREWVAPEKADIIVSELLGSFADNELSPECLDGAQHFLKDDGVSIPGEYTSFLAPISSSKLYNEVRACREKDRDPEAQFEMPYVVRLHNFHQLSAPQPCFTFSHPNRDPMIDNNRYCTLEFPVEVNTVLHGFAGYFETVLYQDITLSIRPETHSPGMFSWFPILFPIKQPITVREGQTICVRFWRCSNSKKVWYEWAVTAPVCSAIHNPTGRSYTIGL
T1 sequence (Q9BQA1 whole entry partner): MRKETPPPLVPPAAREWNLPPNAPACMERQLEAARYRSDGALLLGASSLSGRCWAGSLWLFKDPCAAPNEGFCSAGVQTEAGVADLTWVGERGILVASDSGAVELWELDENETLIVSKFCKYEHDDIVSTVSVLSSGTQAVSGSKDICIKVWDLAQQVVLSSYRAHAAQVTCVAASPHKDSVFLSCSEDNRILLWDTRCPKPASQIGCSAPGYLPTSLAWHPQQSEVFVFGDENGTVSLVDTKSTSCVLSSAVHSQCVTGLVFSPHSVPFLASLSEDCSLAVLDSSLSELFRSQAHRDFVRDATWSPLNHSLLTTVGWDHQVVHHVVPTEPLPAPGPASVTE
From the text: Experimental Procedures In Vitro Assay (Assay 1a and 1b)
PRMT5-MEP50 enzyme was purchased from Charles River (Argenta). The enzyme complex was produced in insect cells (Sf9) infected simultaneously with two baculoviruses. One virus expresses full length human PRMT5 with Flag-tag at N-terminus, the second virus expresses full length MEP50 with His6-TEV cleavage at N-terminus. The protein was affinity purified using anti-Flag (M2) beads eluted with 3×FLAG peptide, followed by His-Select eluted with 0.5M imidazole. Eluted protein was then dialysed against tris-buffered saline (TBS) (pH 8.0) containing 20% glycerol and 3 mM dithiothreitol (DTT).
Full-length untagged human recombinant histone H2A (residues 1-130, Genbank Accession #NM_021052 MW=14.1 kDa) expressed in E. coli was purchased from Reaction Biology Corporation, Cat #HMT-11-146. Reagents used for making reaction buffer or stopping reaction were purchased including Tris base (Sigma Cat #T-1503), NaCl (Sigma Cat #RGF-3270), MgCl2 (Sigma Cat #M0250), DTTI (Invitrogen Cat #15508-013) and Formic Acid (Riedel deHaen, Cat #33015)
High Throughput Mass Spectrometer Assay
PRMT5 catalyzes the sequential methylations of the terminal nitrogen atoms on the guanidine groups of arginine residues within proteins using co-substrate S-adenosyl-L-methionine (AdoMet, SAM), forming mono-methyl (MMA), symmetric-dimethyl arginine (sDMA) and S-adenosyl-L-homocysteine (AdoHcy, SAH). The enzyme activity was determined by following the product SAH formation using high throughput mass spectrometry (Agilent Rapidfire 300 System coupled to a Sciex 4000 series QTrap® triple-quad MS/MS). The reaction buffer was 20 mM Tris-HCl, pH 8.5, 50 mM NaCl, 5 mM MgCl2 and 1 mM DTT. The reaction activity was stopped using 1% formic acid (final concentration).
The IC50 Studies were performed using eleven point dosing series made for each compound by serially diluted 1:2 in dimethyl sulfoxide (DMSO), with point 12 being a DMSO control. Compounds were first spotted to plates, and followed by addition of 2 μM SAM and 0.6 μM H2A (histone H2A) solution mixture. The same volume of enzyme solution was added to initiate the enzymatic reactions. The final concentrations of the reaction are at 1 μM SAM, 0.3 μM H2A and 10 nM enzyme (assay 1a) or 1.25 nM enzyme (assay 1b). The reaction was incubated at 30° C. for 60 minutes (min) when 10 nM enzyme was used and for 120 min when 1.25 nM enzyme was used. Subsequently, the reaction was quenched by addition of formic acid to a final concentration of 1%. The inhibitions of SAH formation in the presence of compounds were calculated as a percentage of the control relative to the uninhibited reaction as a function of inhibitor concentration. The data were fit as follows: Y=Bottom+(Top−Bottom)/(1+10^((log IC50−X)*h))
where IC50 is the inhibitor concentration (same unit as X) at 50% inhibition and h is the Hill slope. Y is percent of inhibition, X is log of compound concentration. Bottom and Top are the plateaus in same units as Y.

[3] = A549, averaged values, PD assay, A549 cells, symmetric Arginine dimethylation, read-out: pIC50 Assay 2 (converted)

Row | SMILES | IC50 [1, 3] [nM] | IC50 [2] [nM] | IC50 ([1]; A549, read-out: pIC50 Assay 2 (converted)) [nM]
1 | C=Cc1ncnc2c1ccn2[C@@H]1C[C@H](CCc2ccc3ccc(NCC4CC4)nc3c2)[C@@H](O)[C@H]1O [Compound 211] | ~2570 | 3.16 | –
2 | Nc1ncnc2c1ccn2[C@@H]1C[C@H](COc2ccc3cccnc3c2)[C@@H](O)[C@H]1O [Compound 46] | 126 | 63.1 | –
3 | Nc1ncnc2c1ccn2[C@@H]1C[C@H](CCc2ccc3ccc(Nc4ccc(Cl)cc4)nc3c2)[C@@H](O)[C@H]1O [Compound 161] | 39.8 | 1.58 | –
4 | CNc1ccc2ccc(OC[C@H]3C[C@@H](n4ccc5c(NC)ncnc54)[C@H](O)[C@@H]3O)cc2n1 [Compound 226] | 100 | 6.31 | –
5 | COc1ncnc2c1ccn2[C@@H]1C[C@H](CCc2ccc3ccc(NCC4CC4)nc3c2)[C@@H](O)[C@H]1O [Compound 210] | 126 | 2.51 | –
6 | Nc1ncnc2c1ccn2[C@@H]1C[C@H](CCc2ccc3ccc(NC4CCC4)nc3c2)[C@@H](O)[C@H]1O [Compound 156] | < 1.17 | 0.316 | –
7 | CNc1ccc2ccc(CC[C@H]3C[C@@H](n4ccc5c(OC)ncnc54)[C@H](O)[C@@H]3O)cc2n1 [Compound 180] | 39.8 | 1.26 | –
8 | Nc1ncnc2c1ccn2[C@@H]1C[C@H](CCc2ccc3ccc(NCC4CC4)nc3c2)[C@@H](O)[C@H]1O [Compound 74] | – | 0.126 | 0.398
9 | COc1ncnc2c1ccn2[C@@H]1C[C@H](CCc2ccc3ccc(NCC(F)F)nc3c2)[C@@H](O)[C@H]1O [Compound 182] | 316 | 6.31 | –
10 | COc1ncnc2c1ccn2[C@@H]1C[C@H](CCc2ccc3cc(C(F)(F)F)c(N)nc3c2)[C@@H](O)[C@H]1O [Compound 200] | 1000 | 6.31 | –

More lines, main results first:

Row | IC50 [1, 3] [nM] | IC50 [2] [nM] | SMILES | IC50 ([1]; A549, read-out: pIC50 Assay 2 (converted)) [nM]
11 | 63.1 | 3.98 | CNc1ncnc2c1ccn2[C@@H]1O[C@H](CCc2ccc3cc(Cl)c(N)nc3c2)[C@@H](O)[C@H]1O [Compound 198] | –
12 | 501 | 631 | CNc1nc2cc(CC[C@H]3C[C@@H](n4ccc5c(N)ncnc54)[C@H](O)[C@@H]3O)ccc2cc1F [Compound 157] | –
13 | < 1.17 | 1 | Nc1nc2cc(CC[C@H]3C[C@@H](n4ccc5cncnc54)[C@H](O)[C@@H]3O)ccc2cc1Cl [Compound 242] | –
14 | 100 | 2 | CC(C)Nc1ncnc2c1ccn2[C@@H]1C[C@H](CCc2ccc3cc(Cl)c(N)nc3c2)[C@@H](O)[C@H]1O [Compound 196] | –
15 | 63.1 | 2 | CNc1ncnc2c1ccn2[C@@H]1C[C@H](CCc2ccc3ccc(NCC(F)F)nc3c2)[C@@H](O)[C@H]1O [Compound 184] | –
16 | 15.8 | 1.58 | CNc1ncnc2c1ccn2[C@@H]1C[C@H](CCc2ccc3cc(F)c(N)nc3c2)[C@@H](O)[C@H]1O [Compound 202] | –
17 | 1.26 | 0.2 | Nc1nc2cc(OC[C@H]3C[C@@H](n4ccc5c(N)ncnc54)[C@H](O)[C@@H]3O)ccc2cc1Cl [Compound 223] | –
18 | < 1.17 | 0.794 | Nc1ncc2ccn([C@@H]3C[C@H](CCc4ccc5cc(Cl)c(N)nc5c4)[C@@H](O)[C@H]3O)c2n1 [Compound 243] | –
19 | 25.1 | 0.501 | COc1ncnc2c1ccn2[C@@H]1C[C@H](CCc2ccc3cc(Cl)c(N)nc3c2)[C@@H](O)[C@H]1O [Compound 195] | –
20 | 5.01 | 0.631 | CNc1ncnc2c1ccn2[C@@H]1C[C@H](CCc2ccc3ccc(NC4CC4)nc3c2)[C@@H](O)[C@H]1O [Compound 179] | –
21 | 251 | 158 | Nc1ncnc2c1ccn2[C@@H]1C[C@H](CCc2ccc3cc(F)c(NCC4CC4)nc3c2)[C@@H](O)[C@H]1O [Compound 155] | –
22 | 158 | 7.94 | CNc1ncnc2c1ccn2[C@@H]1C[C@H](CCc2ccc3ccc(NCC(F)(F)F)nc3c2)[C@@H](O)[C@H]1O [Compound 162] | –
23 | 6.31 | 0.501 | CNc1ncnc2c1ccn2[C@@H]1C[C@H](CCc2ccc3ccc(NC4CCC4)nc3c2)[C@@H](O)[C@H]1O [Compound 183] | –

— patent publication US11318157B2, “6-6 bicyclic aromatic ring substituted nucleoside analogues for use as PRMT5 inhibitors” (Janssen Pharmaceutica NV, priority 2015, dated 2022)
